# Measurements: US9676789B2, “Aminated derivative of homoharringtonine, preparation method therefor, and application thereof” (HANGZHOU BENSHENG PHARMACEUTICAL CO., LTD., priority 2011, dated 2017)
# Experiments:
# [1] = test system: RPMI8226 (multiple myeloma); test: MTT multiple myeloma cell growth inhibition, 72 h; assay type: cell-based, human; conditions: Homo sapiens, RPMI-8226, RPMI8226, 72 h; for IC50: read-out: IC50; for IC90: read-out: IC90
# Description: Multiple myeloma and lymphoma cell lines: RPMI8226 (multiple myeloma), purchased from Fuxiang Bio-tech Co. Ltd., Shanghai, China.
# (§1) Obtaining 6000 well-growing leukemia cells and inoculating them into wells of a 96-well cell culture plate. The culture medium is the 1640 cell culture medium containing 10% fetal bovine serum. After adding the homoharringtonine derivatives of different concentrations and mixing uniformly, placing the plate in a carbon dioxide cell incubator (5% CO2) at 37° C. and incubating for 72 hours. Then the viable cell concentration is determined by the MTT method.
# [2] = test system: PANC-1 (pancreatic cancer); test: MTT solid tumor cell growth inhibition, 72 h; assay type: cell-based, human; conditions: Homo sapiens, PANC-1, 72 h; for IC50: read-out: IC50; for IC90: read-out: IC90
# Description: (§2) Human solid tumor cell lines: Hep-2 ([…]), A549 (human lung cancer), CaES-17 (esophageal cancer cell), PC-3 (prostate cancer), CNE (nasopharyngeal carcinoma cell), and SK-OV-3 (ovarian cancer cell), all of which are purchased from China Center For Type Culture Collection; RKO (human colon adenocarcinoma cell), MGC 803 (human gastric cancer cell), MG63 (osteosarcoma) and U87 MG (malignant glioma cell), all of which are purchased from Fuxiang Bio-tech Co. Ltd., Shanghai, China; PANC-1 (pancreatic cancer), Huh7 (human liver cancer cell), Becap37 (human breast cancer cell), and Hela (human cervical cancer cell), all of which are donated by Cancer Research Institute of Zhejiang University, China.
# (§3) Obtaining 4000 well-growing human solid tumor cells and inoculating them into wells of a 96-well cell culture plate. The culture medium is DMEM High Glucose cell culture medium containing 10% fetal bovine serum. The plate is placed in a carbon dioxide cell incubator (5% CO2) at 37° C. and incubating for 24 hours. After adding the homoharringtonine derivatives of different concentration and mixing uniformly, the plate is placed in a carbon dioxide cell incubator (5% CO2) at 37° C. and incubating for 72 hours. Then the viable cell concentration is determined by the MTT method and the cell viability (%) after drug treatment is calculated. In this experiment, the cell viability of control group (not treated with any compound) is set as 100%.
# [3] = test system: MG63 (osteosarcoma); test: MTT solid tumor cell growth inhibition, 72 h; assay type: cell-based, human; conditions: Homo sapiens, MG 63, 72 h; for IC50: read-out: IC50; for IC90: read-out: IC90
# Description: as §2, §3
# [4] = test system: Jurkat (acute lymphoblastic leukemia, ALL); test: MTT leukemia cell growth inhibition, 72 h; assay type: cell-based, human; conditions: Homo sapiens; for IC50: read-out: IC50; for IC90: read-out: IC90
# Description: (§4) Leukemia cell lines: K562/adr (drug-resistant, chronic myeloid leukemia, CML), NB4 (acute promyelocytic leukemia, AML), Kasumi-1 (acute myeloid leukemia M2 type, AML-M2), Jurkat (acute lymphoblastic leukemia, ALL), all of which are donated by Cancer Research Institute of Zhejiang University, China; and H9 (acute lymphoblastic leukemia, ALL), which is purchased from China Center for Type Culture Collection.
# as §1, with “method. In this experiment, the cell viability in control group (not treated with any compound) is set as 100%.” for “method.”
# [5] = test system: NB4 (acute promyelocytic leukemia, AML); test: MTT leukemia cell growth inhibition, 72 h; assay type: cell-based, human; conditions: Homo sapiens, NB4, 72 h; for IC50: read-out: IC50; for IC90: read-out: IC90
# Description: as §4
# as §1, with “method. In this experiment, the cell viability in control group (not treated with any compound) is set as 100%.” for “method.”
# [6] = test system: H9 (acute lymphoblastic leukemia, ALL); test: MTT leukemia cell growth inhibition, 72 h; assay type: cell-based, human; conditions: Homo sapiens, H9, 72 h; for IC50: read-out: IC50; for IC90: read-out: IC90
# Description: as §4
# as §1, with “method. In this experiment, the cell viability in control group (not treated with any compound) is set as 100%.” for “method.”
# [7] = test system: K562/adr (drug-resistant, chronic myeloid leukemia, CML); test: MTT leukemia cell growth inhibition, 72 h; assay type: cell-based, human; conditions: Homo sapiens, K562/Adr; for IC50: read-out: IC50; for IC90: read-out: IC90
# Description: as §4
# as §1, with “method. In this experiment, the cell viability in control group (not treated with any compound) is set as 100%.” for “method.”
# [8] = test system: Kasumi-1 (acute myeloid leukemia M2 type, AML-M2); test: MTT leukemia cell growth inhibition, 72 h; assay type: cell-based, human; conditions: Homo sapiens, Kasumi-1, 72 h; for IC50: read-out: IC50; for IC90: read-out: IC90
# Description: as §4
# as §1, with “method. In this experiment, the cell viability in control group (not treated with any compound) is set as 100%.” for “method.”
# [9] = test system: Huh7 (human liver cancer cell); test: MTT solid tumor cell growth inhibition, 72 h; assay type: cell-based; conditions: Homo sapiens, Huh-7, Huh7, 72 h; for IC50: read-out: IC50; for IC90: read-out: IC90
# Description: as §2, §3
# [10] = test system: Becap37 (human breast cancer cell); test: MTT solid tumor cell growth inhibition, 72 h; assay type: cell-based; conditions: Homo sapiens, Becap37, 72 h; for IC50: read-out: IC50; for IC90: read-out: IC90
# Description: as §2, §3
# [11] = test system: A549 (human lung cancer); test: MTT solid tumor cell growth inhibition, 72 h; assay type: cell-based; conditions: Homo sapiens, A549, 72 h; for IC50: read-out: IC50; for IC90: read-out: IC90
# Description: as §2, §3
# [12] = test system: MGC 803 (human gastric cancer cell); test: MTT solid tumor cell growth inhibition, 72 h; assay type: cell-based; conditions: Homo sapiens, MGC 803, 72 h; for IC50: read-out: IC50; for IC90: read-out: IC90
# Description: as §2, §3
Structure (SMILES),IC50 [1] [µg/mL],IC90 [1] [µg/mL],IC50 [2] [µg/mL],IC90 [2] [µg/mL],IC50 [3] [µg/mL],IC90 [3] [µg/mL],IC50 [4] [µg/mL],IC90 [4] [µg/mL],IC50 [5] [µg/mL],IC90 [5] [µg/mL],IC50 [6] [µg/mL],IC90 [6] [µg/mL],IC50 [7] [µg/mL],IC90 [7] [µg/mL],IC50 [8] [µg/mL],IC90 [8] [µg/mL],IC50 [9] [µg/mL],IC90 [9] [µg/mL],IC50 [10] [µg/mL],IC90 [10] [µg/mL],further results
CCN1CCN(C(=O)C[C@](O)(CCCC(C)(C)O)C(=O)O[C@@H]2C(OC)=C[C@]34CCCN3CCc3cc5c(cc3[C@H]24)OCO5)CC1 [BS-HH-041],1.96,13.4,6.35,> 16,1.97,> 16,0.89,> 16,1.85,16,3.2,> 16,> 16,> 16,2.79,15,16,> 16,0.9,> 16,IC50 [11]: 8.11 µg/mL; IC90 [11]: > 16 µg/mL; IC50 [12]: 1 µg/mL; IC90 [12]: 11.8 µg/mL
COC1=C[C@]23CCCN2CCc2cc4c(cc2[C@@H]3[C@@H]1OC(=O)[C@@](O)(CCCC(C)(C)O)CC(=O)N1CCCCC1C)OCO4 (stereo partly drawn) [BS-HH-037],1,9.86,6.47,> 16,1.44,16,0.41,> 16,0.7,5.08,3.69,> 16,> 16,> 16,1.58,16,16,> 16,1.5,> 16,IC50 [11]: 1.96 µg/mL; IC90 [11]: > 16 µg/mL; IC50 [12]: 0.9 µg/mL; IC90 [12]: 9.29 µg/mL
COC1=C[C@]23CCCN2CCc2cc4c(cc2[C@@H]3[C@@H]1OC(=O)[C@@](O)(CCCC(C)(C)O)CC(=O)N1CCC(C#N)CC1)OCO4 [BS-HH-035],1.44,14.1,5.02,> 16,1.98,> 16,0.87,> 16,0.72,6.3,5.49,> 16,14.1,> 16,0.8,2.96,4.46,> 16,3.75,> 16,IC50 [11]: 5.41 µg/mL; IC90 [11]: > 16 µg/mL; IC50 [12]: 1.79 µg/mL; IC90 [12]: 9.2 µg/mL
COCCCNC(=O)C[C@](O)(CCCC(C)(C)O)C(=O)O[C@@H]1C(OC)=C[C@]23CCCN2CCc2cc4c(cc2[C@H]13)OCO4 [BS-HH-028],4.92,> 16,16,> 16,6.8,> 16,3.56,15,2.59,7.52,6.52,> 16,> 16,> 16,2.75,13,5.93,> 16,13.1,> 16,IC50 [11]: 16 µg/mL; IC90 [11]: > 16 µg/mL; IC50 [12]: 8.62 µg/mL; IC90 [12]: 24.3 µg/mL
